Laboratory results from patent US9604894B2, “Compounds from antrodia camphorate and their use in treatment of diabetes mellitus” (National Dong Hwa University, priority 2014, dated 2017).
Entries after “also recorded” stand apart in the source; their conditions may differ.

Legend:
C57 BL/6 mice = test: Oral glucose tolerance test in S961-induced insulin resistance mice; assay type: in vivo, mouse; details: D-glucose 2 g/kg; for hypoglycemic efficacy, OGTT blood glucose AUC: S961 50 nmol/kg Bwt, enantiomer 50 mg/kg Bwt p.o., FIG. 7(B)
Procedure: (§1) Animal experiments were approved by the National Dong-Hwa University Animal Ethics Committee and were used according to the “Guide for the Care and Use of Laboratory Animals” of National Dong-Hwa University. C57BL/6 mouse and Imprinting Control Region (ICR) mouse were obtained National Laboratory Animal Center (Taipei, Taiwan) and kept at controlled environmental conditions with room temperature (22±2° C.) and humidity (50±10%). The 12 h light (0600 am-1800 pm) and 12 h dark cycle was maintained throughout the study. Mice had free access to food and water and maintained on a standard laboratory diet (carbohydrates; 60%, proteins; 28%, lipids; 12%, vitamins; 3%).
(§2) Mice were employed to this test after fasting 12 h. Mice were treated with D-glucose by oral gavage (2 g/kg, p.o.). At approximately 0, 30, 60, 90, and 120 min, blood was sampled by venipuncture from the tail vein for the determining blood glucose. Blood glucose was immediately determined by the glucose oxidase method using glucose analyzer (Accu-Chek, Roche).
8 weeks old male C57 BL/6 mice were employed to this test after fasting 12 h. To investigate the effect of natural compounds on the 5961 (insulin receptor antagonist, Novo-Nordisk, Denmark) induced hyperglycemia, mice was intraperitoneally injected (i.p.) S961 (50 nmol/kg Bwt) at 15 min prior to oral gavaged (p.o.) with antroquinonol (dissolved in PEG and EtoH, 50 mg/kg Bwt) and D-glucose (2 g/kg Bwt). At approximately 0, 30, 60, 90, and 120 min, blood was sampled by venipuncture from the tail vein for OGTT test.

[1] = tested on: AKT Thr308 phosphorylation; test: AKT Thr308 phosphorylation, Western blot in differentiated C2C12 cells; assay type: cell-based, mouse; details: C2C12, 37° C., 30 min; insulin 100 nM, metformin 16 mM, antroquinonol 25 μM; FIG. 3(A)
Procedure: (§3) FIG. 3(A) provides the results of the AKT Thr308 phosphorylation induced by insulin, metformin (Met) and antroquinonol (Ant); wherein the differentiated C2C12 cells were incubated with 100 nM of insulin, 16 mM of metformin (Met), or 25 μM of antroquinonol (Ant) at 37° C. for 30 min, and then the cell lysates were separated by SDS-PAGE and blotted for phospho-AKT Thr308; wherein the data were expressed as means with standard errors of mean (mean±SEM), and different letters represent the significant differences (p<0.05) among the various treatments.
Mouse muscle myoblast cells (C2C12) were obtained from the Food Industry Research and Development Institute (FIRDI, Hsinchu, Taiwan). The cells were grown and maintained in Dulbecco's Modified Eagle's Medium containing high level of glucose (DMEM-high glucose; GIBCO, Carlsbad, Calif., USA) supplemented with 10% fetal bovine serum (FBS, GIBCO) and 1% penicillin streptomycin (GIBCO) in a cell culture incubator with 5% CO2 at 37° C. Prior to experiment, the cells were seeded and cultured at a density of 8×10^3 cells per well in 96-well plates or 2.5×10^5 cells per well in 6-well plates. […]
(§4) After treatments, the cells were collected and washed twice in cold KRH buffer (containing 50 mM HEPES, 137 mM NaCl, 4.8 mM KCl, 1.85 mM CaCl2, 1.3 mM MgSO4), and then lysed in ice-cold RIPA buffer (containing 50 mM Tris-HCl, pH 8.0, 150 mM NaCl, 5 mM NaF, 1% NP40, 1 mM sodium orthovanadate, 0.5% sodium deoxycholate, 0.1% sodium dodecyl sulphate (SDS), protease inhibitors, and phosphatase inhibitors (DE-68305, Roche, Mannheim, Germany)) and incubated at 4° C. for 60 min. After centrifugation of the cells at 12,000×g at 4° C. for 30 min, the supernatant was kept and quantified by Bradford protein assay (Bio-Rad, Hercules, Calif., USA). […] The signals were monitored using Western Lightning™ Plus-ECL (Perkin Elmer Life Sciences) and the PVDF membrane was exposed to Luminescent image analyzer (LAS)-3000 (Fujifilm, Minato, Tokyo, Japan). The acquired data were analyzed and compared the difference among various treatments. […]

[2] = tested on: AMPK Thr172 phosphorylation; test: AMPK Thr172 phosphorylation, Western blot in differentiated C2C12 cells; assay type: cell-based, mouse; details: C2C12, 37° C., 30 min; insulin 100 nM, metformin 16 mM, antroquinonol 25 μM; FIG. 3(B)
Procedure: as §3, with “3(B)” for “3(A)”, “AMPK Thr172” for “the AKT Thr308”, “phospho-AMPK Thr172;” for “phospho-AKT Thr308;”
Mouse muscle myoblast cells (C2C12) were obtained from the Food Industry Research and Development Institute (FIRDI, Hsinchu, Taiwan). […]
After treatments, the cells were collected and washed twice in cold KRH buffer (containing 50 mM HEPES, 137 mM NaCl, 4.8 mM KCl, 1.85 mM CaCl2, 1.3 mM MgSO4), and then lysed in ice-cold RIPA buffer (containing 50 mM Tris-HCl, pH 8.0, 150 mM NaCl, 5 mM NaF, 1% NP40, 1 mM sodium orthovanadate, 0.5% sodium deoxycholate, 0.1% sodium dodecyl sulphate (SDS), protease inhibitors, and phosphatase inhibitors (DE-68305, Roche, Mannheim, Germany)) and incubated at 4° C. for 60 min. After centrifugation of the cells at 12,000×g at 4° C. for 30 min, the supernatant was kept and quantified by Bradford protein assay (Bio-Rad, Hercules, Calif., USA). […]

DIO ICR mice [3] = test: Long term glucose tolerance (OGTT) in diet-induced obesity (DIO) ICR mice; assay type: in vivo, mouse; details: antroquinonol 25 mg/kg Bwt versus Sitagliptin 10 mg/kg Bwt, q.o.d. for 4 weeks, FIG. 9
Procedure: as §1, §2
(§5) 8 weeks old ICR male mice were induced with high fat die and 60% fructose water for 10 weeks. […] Blood glucose was immediately determined by the glucose oxidase method using glucose analyzer (Accu-Chek, Roche), when blood sugar was sustained at higher level than 200 mg/dl after 120 min oral glucose that defined high blood sugar. […]

[4] = biological target: T1, Dipeptidyl peptidase-4 (DPP4) (Homo sapiens, UniProt P27487); test: DPP4 enzyme activity (DPPIV/CD26 Assay Kit); assay type: biochemical; details: 100 μM, 30 min at RT; FIG. 2
T1 construct: purchased Enzo BML-AK498
Procedure: Dipeptidyl peptidase-4 (DPP4), also known as adenosine deaminase complexing protein 2 or CD26 (cluster of differentiation 26), is […]. DPP4 enzyme activity was measured by a DPPIV/CD26 Assay Kit (BML-AK498, Enzo, N.Y., USA). This assay is based on the cleavage of the p-nitroaniline (pNA) from the chromogenic substrate (H-Gly-Pro-pNA) to increase the absorbance at 405 nm. Firstly 50 μL of assay buffer (50 mM Glycine, pH 8.7, 1 mM EDTA) per will was added into the 96-well clear microplate, and then 20 μL of DPP4 enzyme (13 μU/μL), 20 μL of tested inhibitors, 100 μM of antroquinonol or known clinical drug sitagliptin, and finally 10 μL of pNA substrate were added to each well sequentially. After an incubation of reaction mixture at room temperature (RT) for 30 min, the absorbance of each sample was read at 405 nm by the ELISA plate reader (Thermo Labsystems, Opsys MR, Thermo fisher scientific).

PKA protein level = test: Glucagon like peptide-1 induced PKA protein level, Western blot in AR42J cells; assay type: cell-based, rat; details: 5 μM and 20 μM, with 1 nM GLP-1 or 1 nM exendin-4, 48 h, FIG. 4
Procedure: Rat pancreas tumor cells (AR42J) were obtained from the Food Industry Research and Development Institute (FIRDI, Hsinchu, Taiwan). The cells were grown and maintained in DMEM (GIBCO) supplemented with 20% fetal bovine serum (FBS, GIBCO) and 1% penicillin streptomycin (GIBCO) and 2 mM of L-glutamin in a cell culture incubator with 5% CO2 at 37° C. Prior to the experiments, the cells were seeded and cultured for 16-24 h.
as §4

DIO ICR mice [5] = test: Short term glucose tolerance (OGTT) in diet-induced obesity (DIO) ICR mice; assay type: in vivo, mouse; details: antroquinonol 25 mg/kg Bwt versus Sitagliptin 20 mg/kg Bwt, 15 min before D-glucose 2 g/kg, FIG. 8
Procedure: as §1, §2, §5

GLUT4 translocation = test: Measurement of GLUT4 translocation in differentiated C2C12 cells; assay type: cell-based, mouse; details: FIG. 5(A)
Procedure: Mouse muscle myoblast cells (C2C12) were obtained from the Food Industry Research and Development Institute (FIRDI, Hsinchu, Taiwan). The cells were grown and maintained in Dulbecco's Modified Eagle's Medium containing high level of glucose (DMEM-high glucose; GIBCO, Carlsbad, Calif., USA) supplemented with 10% fetal bovine serum (FBS, GIBCO) and 1% penicillin streptomycin (GIBCO) in a cell culture incubator with 5% CO2 at 37° C. Prior to experiment, the cells were seeded and cultured at a density of 8×10^3 cells per well in 96-well plates or 2.5×10^5 cells per well in 6-well plates. After the myoblasts achieved 80% confluence, the cells were incubated for 4 days in DMEM—high glucose supplemented with 1% FBS and 1% horse serum induced differentiation to myotubes.
C2C12 was fully differentiated with DMEM supplemented with 1% FBS and 1% horse serum for 4 days. The cells were washed twice with PBS containing 0.1% BSA and subsequently incubated in PBS with or without the treatment with 185 μM insulin (Ins), 16 mM metformin (Met), or 50, 100, and 150 μM of antroquinonol (Ant) for 55 min (n=5 in each group) respectively, and then placed on ice and immediately fixed with 1% glutaraldehyde in PBS at RT for 10 min. […] HRP activity was determined by measuring the absorbance at 450 nm with a spectrophotometer (EnSpire 2300 Multilabel Reader, Perkin Elmer, Waltham, Mass., USA). […]

T1 sequence (P27487 whole entry): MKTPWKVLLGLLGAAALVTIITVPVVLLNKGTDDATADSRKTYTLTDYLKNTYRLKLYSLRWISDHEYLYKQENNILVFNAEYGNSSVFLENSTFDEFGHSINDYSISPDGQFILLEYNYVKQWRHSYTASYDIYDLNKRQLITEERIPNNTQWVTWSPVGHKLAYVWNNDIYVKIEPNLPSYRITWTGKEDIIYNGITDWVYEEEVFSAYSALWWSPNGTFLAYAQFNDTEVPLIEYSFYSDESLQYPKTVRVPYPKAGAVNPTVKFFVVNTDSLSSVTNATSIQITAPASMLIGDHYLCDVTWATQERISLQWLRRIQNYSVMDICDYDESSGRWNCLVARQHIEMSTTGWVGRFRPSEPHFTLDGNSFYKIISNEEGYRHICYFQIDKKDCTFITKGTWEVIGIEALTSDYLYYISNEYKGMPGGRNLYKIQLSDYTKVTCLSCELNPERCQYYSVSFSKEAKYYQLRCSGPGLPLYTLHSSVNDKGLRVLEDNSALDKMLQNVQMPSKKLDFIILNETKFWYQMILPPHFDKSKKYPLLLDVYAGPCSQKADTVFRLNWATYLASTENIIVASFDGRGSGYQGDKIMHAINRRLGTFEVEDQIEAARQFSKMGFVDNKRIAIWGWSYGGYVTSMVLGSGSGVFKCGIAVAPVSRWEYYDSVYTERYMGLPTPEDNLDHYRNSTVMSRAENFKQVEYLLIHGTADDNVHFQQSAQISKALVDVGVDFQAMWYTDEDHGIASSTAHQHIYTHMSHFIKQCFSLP

Compound | hypoglycemic efficacy, OGTT blood glucose AUC (C57 BL/6 mice) | AKT Thr308 phosphorylation [1] | AMPK Thr172 phosphorylation [2] | also measured
COC1=C(OC)[C@@H](O)[C@@H](C/C=C(\C)CC/C=C(\C)CCC=C(C)C)[C@H](C)C1=O [(−)-antroquinonol] | had the hypoglycemic efficacy |  |  | 
CN(C)C(=N)N=C(N)N [metformin, reference compound] |  | not | provided an effect in action to the phosphorylation of AMPK Thr172 | 
COC1=C(OC)[C@H](O)[C@H](C/C=C(\C)CC/C=C(\C)CCC=C(C)C)[C@@H](C)C1=O [antroquinonol] |  | not | significantly better efficacy on the phosphorylation of AMPK Thr172 than insulin and metformin | glucose tolerance, OGTT blood glucose AUC, long term (DIO ICR mice [3]): effects similar to Sitagliptin; hypoglycemic efficacy, OGTT blood glucose AUC (ratio to the control) (C57 BL/6 mice; S961-treated mice, antroquinonol 50 mg/kg Bwt p.o., metformin 100 mg/kg as positive control, FIG. 7(A)): had the hypoglycemic efficacy in the condition of insulin resistance through the oral glucose tolerance test (OGTT), similar to Metformin; inhibitory rate of DPP4 activity (compared to the control without treatment) [4]: up to 50%; PKA protein level (PKA protein level): PKA protein level was expressed; glucose tolerance, OGTT blood glucose AUC, short term (DIO ICR mice [5]): effects similar to Sitagliptin; GLUT4 translocation, comparison with metformin (GLUT4 translocation; C2C12, 100 μM of antroquinonol): equivalent to 16 mM metformin; GLUT4 translocation (GLUT4 translocation; C2C12, antroquinonol 50, 100, 150 μM versus insulin 185 μM and metformin 16 mM, 55 min): good effect on GLUT4 translocation similar to insulin (Ins), and which is even better than metformin (Met); also recorded: enhanced GLUT4 translocation with dose-dependent manner
insulin |  | induced insulin signaling pathway at the phosphorylation of AKT Thr308 |  | 
(+)-antroquinonol | had the hypoglycemic efficacy |  |  | 
